Measurements reported in publication PMC7044277 (Nature Communications, 2020).
Values joined by “and” are separate entries in the source; they are usually repeats but may differ in a detail not shown here. Equal values may be shown once.

Columns and labels:
DRD4 (D4.4 variant) [1] = molecular target: T1, DRD4 (D4.4 variant) (Homo sapiens, UniProt P21917); test: Gαi/o-mediated cAMP inhibition (GloSensor); format: cell-based; conditions: DRD4; agonist, cAMP inhibition; read-out: EC50 ± SEM
T1 sequence (P21917 1-419): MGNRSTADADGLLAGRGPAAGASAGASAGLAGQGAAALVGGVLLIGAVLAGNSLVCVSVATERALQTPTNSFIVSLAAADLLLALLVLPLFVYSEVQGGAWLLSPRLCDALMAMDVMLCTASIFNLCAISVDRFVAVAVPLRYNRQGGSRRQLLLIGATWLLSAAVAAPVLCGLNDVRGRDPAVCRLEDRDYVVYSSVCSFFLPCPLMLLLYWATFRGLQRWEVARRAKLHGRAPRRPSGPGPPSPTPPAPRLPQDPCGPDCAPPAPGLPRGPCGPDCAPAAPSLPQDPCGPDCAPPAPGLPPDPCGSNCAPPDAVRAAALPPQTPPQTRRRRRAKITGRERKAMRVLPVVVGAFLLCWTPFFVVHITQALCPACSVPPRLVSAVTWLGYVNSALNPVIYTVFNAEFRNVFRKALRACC

DRD3 wild-type = DRD3 wild-type (Homo sapiens, UniProt P35462); test: Radioligand competition binding, [3H]-N-methylspiperone
DRD2 F1103.28A = DRD2 F1103.28A (Homo sapiens, UniProt P14416, F110A); format: binding; set-up: expressed in transfected cells; host or cells: HEK293T (ATCC CRL-11268); conditions: DRD2 F1103.28A
DRD3 = DRD3 (Homo sapiens, UniProt P35462); test: β-arrestin2 recruitment (Tango); format: cell-based; conditions: DRD3, Tango
[2] = molecular target: DRD2 (D2 long receptor) wild-type (Homo sapiens, UniProt P14416); test: Radioligand competition binding, [3H]-N-methylspiperone, HEK293T membranes
DRD2 (D2 long receptor) [3] = molecular target: T2, DRD2 (D2 long receptor) (Homo sapiens, UniProt P14416); test: β-arrestin2 recruitment (Tango), HTLA cells; format: cell-based; conditions: for Response, Fig_S11c dose-response: individual replicates
[4] = molecular target: T3, DRD4 (D4.4 variant) wild-type (Homo sapiens, UniProt P21917); test: Radioligand competition binding, [3H]-N-methylspiperone
T3 sequence (P21917 1-419): T1 sequence (P21917 1-419)

DRD4 (D4.4 variant) [5] = molecular target: T1, DRD4 (D4.4 variant); test: β-arrestin2 recruitment (Tango); format: cell-based; conditions: DRD4; Tango; read-out: EC50 ± SEM
DRD2 (D2 long receptor) [6] = molecular target: T2, DRD2 (D2 long receptor); test: Gαi/o-mediated cAMP inhibition (GloSensor split-luciferase cAMP reporter), HEK293T; format: cell-based; conditions: for Response, Fig_S11b dose-response: individual replicates;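 on all read-outs here: compounds applied 15 min at room temperature, then luciferin plus 400 nM isoproterenol to raise cAMP through endogenous β2-adrenergic receptors, luminescence read 15 min later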

T2 sequence (P14416 whole entry): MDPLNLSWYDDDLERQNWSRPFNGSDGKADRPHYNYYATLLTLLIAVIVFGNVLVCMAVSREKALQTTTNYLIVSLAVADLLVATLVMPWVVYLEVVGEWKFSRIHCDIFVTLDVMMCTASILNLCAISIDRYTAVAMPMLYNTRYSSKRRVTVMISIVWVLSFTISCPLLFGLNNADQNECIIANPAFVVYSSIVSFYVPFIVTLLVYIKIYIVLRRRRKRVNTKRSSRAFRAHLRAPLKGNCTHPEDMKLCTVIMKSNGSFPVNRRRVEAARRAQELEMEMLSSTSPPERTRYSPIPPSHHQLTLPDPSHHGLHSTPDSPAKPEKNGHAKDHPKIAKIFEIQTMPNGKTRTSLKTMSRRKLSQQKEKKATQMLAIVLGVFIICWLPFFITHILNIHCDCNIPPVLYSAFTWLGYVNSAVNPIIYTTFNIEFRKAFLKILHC
Chain of DRD2 F1103.28A (P14416 whole entry F110A): as the sequence (P14416 whole entry) above, with F110A counted along it
Chain of DRD2 (D2 long receptor) wild-type (P14416 whole entry): as the sequence (P14416 whole entry) above
Chain of DRD3 wild-type (P35462 whole entry): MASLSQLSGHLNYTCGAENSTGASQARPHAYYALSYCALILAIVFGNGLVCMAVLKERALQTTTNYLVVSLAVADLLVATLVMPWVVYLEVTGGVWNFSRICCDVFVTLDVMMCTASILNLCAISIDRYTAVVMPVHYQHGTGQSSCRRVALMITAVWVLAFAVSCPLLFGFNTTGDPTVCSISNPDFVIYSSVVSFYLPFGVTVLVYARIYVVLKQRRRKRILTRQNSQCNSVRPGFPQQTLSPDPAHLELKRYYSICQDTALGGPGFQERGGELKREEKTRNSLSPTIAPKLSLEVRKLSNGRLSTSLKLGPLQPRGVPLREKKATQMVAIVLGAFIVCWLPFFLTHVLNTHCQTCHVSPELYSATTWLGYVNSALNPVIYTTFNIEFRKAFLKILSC
Chain of DRD3 (P35462 whole entry): as above

## CCCOc1cccc2cc(C(C)NCC3(O)CCCCC3)oc12.Cl (centres unmarked) [O5LE6]
DRD4 (D4.4 variant) [1]
  EC50: > 10000 nM
DRD3 wild-type; DRD3, [3H]-methylspiperone (0.8-1.0 nM), read-out: Ki
  Ki: 390 nM
DRD3 wild-type; DRD3 wild-type
  pKi ± SEM: 6.41±0.20
DRD2 F1103.28A
  pKi ± SEM: 6.17±0.24
DRD2 F1103.28A; read-out: Ki
  Ki: 680 nM
DRD3
  Emax relative to quinpirole response: 53.92%
DRD3; read-out: EC50 ± SEM
  EC50: 2070 ± 524 nM
[2]; DRD2, [3H]-methylspiperone (0.8-1.0 nM), read-out: Ki
  Ki: 2510 nM
[2]; DRD2 wild-type
  pKi ± SEM: 5.60±0.27
DRD2 (D2 long receptor) [3]; DRD2, Tango
  Emax relative to quinpirole response: 96.83%
DRD2 (D2 long receptor) [3]; DRD2, β-arrestin2 recruitment (Tango), read-out: EC50 ± SEM
  EC50: 48 ± 17.4 nM
DRD2 (D2 long receptor) [3]; Fig_S11c, Log[Drug] -5, replicate values
  response, Fig_S11c dose-response source data: 92.0049 and 94.8711 and 101.869 and 86.3956 and 96.7296 and 94.1831 and 124.768 and 128.356
DRD2 (D2 long receptor) [3]; Log[Drug] -6.52
  Response, Fig_S11c dose-response: 78.0067 and 72.6033 and 81.7269
DRD2 (D2 long receptor) [3]; Log[Drug] -7
  Response, Fig_S11c dose-response: 59.3634 and 78.1496 and 92.3943 and 62.4498 and 64.4647 and 75.7752 and 66.3683 and 83.054 and 11.3874
DRD2 (D2 long receptor) [3]; Log[Drug] -7.52
  Response, Fig_S11c dose-response: 39.0633 and 46.4823 and 48.2261 and 47.7888 and 46.5069 and 50.1562 and 52.6803 and 36.834 and 2.983
DRD2 (D2 long receptor) [3]; Log[Drug] -8
  Response, Fig_S11c dose-response: 13.2042 and 18.1697 and 22.7864 and 24.8922 and 32.8443 and 29.0019 and 29.5472 and 40.4681 and 3.216
DRD2 (D2 long receptor) [3]; Log[Drug] -8.52
  Response, Fig_S11c dose-response: 6.043 and 5.645 and 6.29 and 8.275 and 9.219 and 10.0453 and 7.5026 and 13.6733
DRD2 (D2 long receptor) [3]; Log[Drug] -9
  Response, Fig_S11c dose-response: 3.483 and 3.9317 and 4.775 and 3.72 and 3.708 and 4.581 and 2.217 and 12.7509 and 0.7411
DRD2 (D2 long receptor) [3]; Log[Drug] -9.52
  Response, Fig_S11c dose-response: 2.993 and 3.331 and 4.098 and 2.754 and 3.737 and 4.1942 and 7.991 and 10.1775 and 1.675
DRD2 (D2 long receptor) [3]; Log[Drug] -10
  Response, Fig_S11c dose-response: 3.128 and 3.469 and 3.576 and 3.051 and 3 and 3.543 and 4.136 and 3.1859 and 0.7745
DRD2 (D2 long receptor) [3]; Log[Drug] -10.52
  Response, Fig_S11c dose-response: 3.13 and 3.099 and 3.417 and 2.557 and 2.786 and 3.353 and 2.31 and 1.747 and 0.1927
DRD2 (D2 long receptor) [3]; Log[Drug] -11
  Response, Fig_S11c dose-response: 2.735 and 2.569 and 3.311 and 2.422 and 2.816 and 3.208 and 1.747 and 3.739 and 0.4891
DRD2 (D2 long receptor) [3]; Log[Drug] -11.52
  Response, Fig_S11c dose-response: 2.576 and 2.946 and 3.152 and 2.7257 and 2.6254 and 2.896 and 3.227 and 4.708 and 2.264
DRD2 (D2 long receptor) [3]; Log[Drug] -12
  Response, Fig_S11c dose-response: 2.314 (2×) and 2.658 and 2.679 and 2.551 and 2.481 and 2.532 and 1.9407
[4]; DRD4, [3H]-methylspiperone (0.8-1.0 nM), read-out: Ki
  Ki: 6600 nM
[4]; DRD4 wild-type
  pKi ± SEM: 5.18±0.16
DRD4 (D4.4 variant) [5]
  EC50: > 10000 nM
DRD2 (D2 long receptor) [6]; DRD2, agonist, Gαi/o-mediated cAMP inhibition, read-out: EC50 ± SEM
  EC50: 0.51 ± 0.22 nM
DRD2 (D2 long receptor) [6]; DRD2, cAMP inhibition
  Emax relative to quinpirole response: 92.80%
DRD2 (D2 long receptor) [6]; Log[Drug] -5
  Response, Fig_S11b dose-response: 93.7387 and 96.4518 and 83.3289 and 97.2506 and 100.948 and 91.5558 and 103.412 and 92.2091 and 101.183
DRD2 (D2 long receptor) [6]; Log[Drug] -5.52
  Response, Fig_S11b dose-response: 82.1384 and 82.3875 and 75.0785 and 87.4334 and 93.0858 and 74.7688 and 89.9797 and 94.4943 and 85.5765
DRD2 (D2 long receptor) [6]; Log[Drug] -6
  Response, Fig_S11b dose-response: 92.7696 and 95.5936 and 84.8792 and 92.7883 and 90.7908 and 90.8333 and 98.9533 and 107.927 and 83.4028
DRD2 (D2 long receptor) [6]; Log[Drug] -6.52
  Response, Fig_S11b dose-response: 97.1163 and 91.7176 and 84.6854 and 100.523 and 99.588 and 84.586 and 94.4943 (2×) and 87.9175
DRD2 (D2 long receptor) [6]; Log[Drug] -7
  Response, Fig_S11b dose-response: 88.7275 and 92.9358 and 71.1749 and 92.7033 and 88.1559 and 76.2138 and 94.4943 and 90.0354 and 94.6058
DRD2 (D2 long receptor) [6]; Log[Drug] -7.52
  Response, Fig_S11b dose-response: 77.9025 and 80.4772 and 73.7773 and 81.6111 and 84.246 and 79.2737 and 92.3206 (2×) and 90.0912
DRD2 (D2 long receptor) [6]; Log[Drug] -8
  Response, Fig_S11b dose-response: 77.3211 and 65.3055 and 54.0098 and 88.3259 and 67.3316 and 76.7238 and 92.3764 and 94.6058 and 90.1469
DRD2 (D2 long receptor) [6]; Log[Drug] -8.52
  Response, Fig_S11b dose-response: 58.6056 and 55.6709 and 54.785 and 76.7663 and 68.819 and 71.6664 and 72.5342 and 65.79 and 68.0195
DRD2 (D2 long receptor) [6]; Log[Drug] -9
  Response, Fig_S11b dose-response: 60.5713 and 46.8115 and 46.2578 and 72.3889 and 53.7745 and 57.9819 and 43.7184 and 46.0036 and 36.9186
DRD2 (D2 long receptor) [6]; Log[Drug] -11
  Response, Fig_S11b dose-response: 6.418 and 5.781 and 25.106 and 20.5831 and 9.873 and -2.9186 and 1.972 and -15.9196 and 1.6931
DRD2 (D2 long receptor) [6]; Log[Drug] -11.52
  Response, Fig_S11b dose-response: -0.171 and -1.0016 and 12.1684 and 15.5258 and 10.8339 and -7.0018 and -2.6544
DRD2 (D2 long receptor) [6]; Log[Drug] -12
  Response, Fig_S11b dose-response: 10.388 and -0.6478 and -16.2541
